# Test results as given in ChEMBL document CHEMBL5724914, “Linking interpersonal differences in gut microbiota composition and drug biotransformation activity” (2024).
# Test: (§1) The drug is tested on Z-002 corresponding to rabbit gut metagenome with ENA study accession number: PRJEB37062 and ENA sample accession number: ERS12561802 for biotransformation under anaerobic condition. The drug concentrations were measured over 9 timepoints collected between 0 and 24 hours of incubation by liquid-chromatography-coupled mass spectrometry (LC–MS)
# Conditions: 2 µM
# Note: call rule not given here.
row,Bacterial Biotransformation,Structure (SMILES)
1,Compound metabolized,CCCCCOC(=O)Nc1nc(=O)n([C@@H]2O[C@H](C)[C@@H](O)[C@H]2O)cc1F [CAPECITABINE]
2,Compound NOT metabolized,COc1ccc2[nH]c([S+]([O-])Cc3ncc(C)c(OC)c3C)nc2n1 (stereo not given) [TENATOPRAZOLE]

# Test: as §1, with “WLS-010” for “Z-002”, “human” for “rabbit”, “ERS12561743” for “ERS12561802”
# Conditions: 2 µM
row,Bacterial Biotransformation,Structure (SMILES)
1,Compound metabolized,CCCCCOC(=O)Nc1nc(=O)n([C@@H]2O[C@H](C)[C@@H](O)[C@H]2O)cc1F [CAPECITABINE]
2,Compound metabolized,COc1ccc2[nH]c([S+]([O-])Cc3ncc(C)c(OC)c3C)nc2n1 (stereo not given) [TENATOPRAZOLE]

# Test: as §1, with “Z-010” for “Z-002”, “to” for “to rabbit gut”, “ERS12561810” for “ERS12561802”
# Conditions: 2 µM
row,Bacterial Biotransformation,Structure (SMILES)
1,Compound metabolized,CCCCCOC(=O)Nc1nc(=O)n([C@@H]2O[C@H](C)[C@@H](O)[C@H]2O)cc1F [CAPECITABINE]
2,Compound metabolized,COc1ccc2[nH]c([S+]([O-])Cc3ncc(C)c(OC)c3C)nc2n1 (stereo not given) [TENATOPRAZOLE]

# Conditions: human gut metagenome, 24 h, 2 µM
row,Bacterial Biotransformation,Structure (SMILES)
1,Compound NOT metabolized,CCCCCOC(=O)Nc1nc(=O)n([C@@H]2O[C@H](C)[C@@H](O)[C@H]2O)cc1F [CAPECITABINE]
2,Compound metabolized,COc1ccc2[nH]c([S+]([O-])Cc3ncc(C)c(OC)c3C)nc2n1 (stereo not given) [TENATOPRAZOLE]

# Conditions: human gut metagenome, 24 h, 2 µM
# Remark: another data set of the same source
row,Bacterial Biotransformation,Structure (SMILES)
1,Compound metabolized,CCCCCOC(=O)Nc1nc(=O)n([C@@H]2O[C@H](C)[C@@H](O)[C@H]2O)cc1F [CAPECITABINE]
2,Compound metabolized,COc1ccc2[nH]c([S+]([O-])Cc3ncc(C)c(OC)c3C)nc2n1 (stereo not given) [TENATOPRAZOLE]

# Test: as §1, with “Z-012” for “Z-002”, “to” for “to rabbit gut”, “ERS12561812” for “ERS12561802”
# Conditions: 2 µM
row,Bacterial Biotransformation,Structure (SMILES)
1,Compound metabolized,CCCCCOC(=O)Nc1nc(=O)n([C@@H]2O[C@H](C)[C@@H](O)[C@H]2O)cc1F [CAPECITABINE]
2,Compound metabolized,COc1ccc2[nH]c([S+]([O-])Cc3ncc(C)c(OC)c3C)nc2n1 (stereo not given) [TENATOPRAZOLE]

# Test: as §1, with “WLS-240” for “Z-002”, “human” for “rabbit”, “ERS12561773” for “ERS12561802”
# Conditions: 2 µM
row,Bacterial Biotransformation,Structure (SMILES)
1,Compound metabolized,CCCCCOC(=O)Nc1nc(=O)n([C@@H]2O[C@H](C)[C@@H](O)[C@H]2O)cc1F [CAPECITABINE]
2,Compound metabolized,COc1ccc2[nH]c([S+]([O-])Cc3ncc(C)c(OC)c3C)nc2n1 (stereo not given) [TENATOPRAZOLE]

# Test: as §1, with “WLS-038” for “Z-002”, “human” for “rabbit”, “ERS12561745” for “ERS12561802”
# Conditions: 2 µM
row,Bacterial Biotransformation,Structure (SMILES)
1,Compound metabolized,CCCCCOC(=O)Nc1nc(=O)n([C@@H]2O[C@H](C)[C@@H](O)[C@H]2O)cc1F [CAPECITABINE]
2,Compound metabolized,COc1ccc2[nH]c([S+]([O-])Cc3ncc(C)c(OC)c3C)nc2n1 (stereo not given) [TENATOPRAZOLE]

# Test: as §1, with “Z-026” for “Z-002”, “to” for “to rabbit gut”, “ERS12561825” for “ERS12561802”
# Conditions: 2 µM
row,Bacterial Biotransformation,Structure (SMILES)
1,Compound NOT metabolized,CCCCCOC(=O)Nc1nc(=O)n([C@@H]2O[C@H](C)[C@@H](O)[C@H]2O)cc1F [CAPECITABINE]
2,Compound metabolized,COc1ccc2[nH]c([S+]([O-])Cc3ncc(C)c(OC)c3C)nc2n1 (stereo not given) [TENATOPRAZOLE]

# Test: as §1, with “WLS-039” for “Z-002”, “human” for “rabbit”, “ERS12561746” for “ERS12561802”
# Conditions: 2 µM
row,Bacterial Biotransformation,Structure (SMILES)
1,Compound metabolized,CCCCCOC(=O)Nc1nc(=O)n([C@@H]2O[C@H](C)[C@@H](O)[C@H]2O)cc1F [CAPECITABINE]
2,Compound metabolized,COc1ccc2[nH]c([S+]([O-])Cc3ncc(C)c(OC)c3C)nc2n1 (stereo not given) [TENATOPRAZOLE]

# Conditions: human gut metagenome, 24 h, 2 µM
# Remark: another data set of the same source
row,Bacterial Biotransformation,Structure (SMILES)
1,Compound metabolized,CCCCCOC(=O)Nc1nc(=O)n([C@@H]2O[C@H](C)[C@@H](O)[C@H]2O)cc1F [CAPECITABINE]
2,Compound NOT metabolized,COc1ccc2[nH]c([S+]([O-])Cc3ncc(C)c(OC)c3C)nc2n1 (stereo not given) [TENATOPRAZOLE]

# Conditions: human gut metagenome, 24 h, 2 µM
# Remark: another data set of the same source
row,Bacterial Biotransformation,Structure (SMILES)
1,Compound metabolized,CCCCCOC(=O)Nc1nc(=O)n([C@@H]2O[C@H](C)[C@@H](O)[C@H]2O)cc1F [CAPECITABINE]
2,Compound metabolized,COc1ccc2[nH]c([S+]([O-])Cc3ncc(C)c(OC)c3C)nc2n1 (stereo not given) [TENATOPRAZOLE]

# Test: as §1, with “WLS-098” for “Z-002”, “human” for “rabbit”, “ERS12561754” for “ERS12561802”
# Conditions: 2 µM
row,Bacterial Biotransformation,Structure (SMILES)
1,Compound metabolized,CCCCCOC(=O)Nc1nc(=O)n([C@@H]2O[C@H](C)[C@@H](O)[C@H]2O)cc1F [CAPECITABINE]
2,Compound metabolized,COc1ccc2[nH]c([S+]([O-])Cc3ncc(C)c(OC)c3C)nc2n1 (stereo not given) [TENATOPRAZOLE]

# Conditions: human gut metagenome, 24 h, 2 µM
# Remark: another data set of the same source
row,Bacterial Biotransformation,Structure (SMILES)
1,Compound metabolized,CCCCCOC(=O)Nc1nc(=O)n([C@@H]2O[C@H](C)[C@@H](O)[C@H]2O)cc1F [CAPECITABINE]
2,Compound NOT metabolized,COc1ccc2[nH]c([S+]([O-])Cc3ncc(C)c(OC)c3C)nc2n1 (stereo not given) [TENATOPRAZOLE]

# Test: as §1, with “WLS-170” for “Z-002”, “human” for “rabbit”, “ERS12561762” for “ERS12561802”
# Conditions: 2 µM
row,Bacterial Biotransformation,Structure (SMILES)
1,Compound metabolized,CCCCCOC(=O)Nc1nc(=O)n([C@@H]2O[C@H](C)[C@@H](O)[C@H]2O)cc1F [CAPECITABINE]
2,Compound NOT metabolized,COc1ccc2[nH]c([S+]([O-])Cc3ncc(C)c(OC)c3C)nc2n1 (stereo not given) [TENATOPRAZOLE]

# Test: as §1, with “WLS-027” for “Z-002”, “human” for “rabbit”, “ERS12561744” for “ERS12561802”
# Conditions: 2 µM
row,Bacterial Biotransformation,Structure (SMILES)
1,Compound metabolized,CCCCCOC(=O)Nc1nc(=O)n([C@@H]2O[C@H](C)[C@@H](O)[C@H]2O)cc1F [CAPECITABINE]
2,Compound metabolized,COc1ccc2[nH]c([S+]([O-])Cc3ncc(C)c(OC)c3C)nc2n1 (stereo not given) [TENATOPRAZOLE]

# Test: as §1, with “WLS-007” for “Z-002”, “human” for “rabbit”, “ERS12561742” for “ERS12561802”
# Conditions: 2 µM
row,Bacterial Biotransformation,Structure (SMILES)
1,Compound metabolized,CCCCCOC(=O)Nc1nc(=O)n([C@@H]2O[C@H](C)[C@@H](O)[C@H]2O)cc1F [CAPECITABINE]
2,Compound metabolized,COc1ccc2[nH]c([S+]([O-])Cc3ncc(C)c(OC)c3C)nc2n1 (stereo not given) [TENATOPRAZOLE]

# Conditions: human gut metagenome, 24 h, 2 µM
# Remark: another data set of the same source
row,Bacterial Biotransformation,Structure (SMILES)
1,Compound metabolized,CCCCCOC(=O)Nc1nc(=O)n([C@@H]2O[C@H](C)[C@@H](O)[C@H]2O)cc1F [CAPECITABINE]
2,Compound metabolized,COc1ccc2[nH]c([S+]([O-])Cc3ncc(C)c(OC)c3C)nc2n1 (stereo not given) [TENATOPRAZOLE]

# Test: as §1, with “Z-011” for “Z-002”, “mouse” for “rabbit”, “ERS12561811” for “ERS12561802”
# Conditions: 2 µM
row,Bacterial Biotransformation,Structure (SMILES)
1,Compound metabolized,CCCCCOC(=O)Nc1nc(=O)n([C@@H]2O[C@H](C)[C@@H](O)[C@H]2O)cc1F [CAPECITABINE]
2,Compound metabolized,COc1ccc2[nH]c([S+]([O-])Cc3ncc(C)c(OC)c3C)nc2n1 (stereo not given) [TENATOPRAZOLE]

# Conditions: human gut metagenome, 24 h, 2 µM
# Remark: another data set of the same source
row,Bacterial Biotransformation,Structure (SMILES)
1,Compound metabolized,CCCCCOC(=O)Nc1nc(=O)n([C@@H]2O[C@H](C)[C@@H](O)[C@H]2O)cc1F [CAPECITABINE]
2,Compound metabolized,COc1ccc2[nH]c([S+]([O-])Cc3ncc(C)c(OC)c3C)nc2n1 (stereo not given) [TENATOPRAZOLE]
